Measurements taken from patent publication US20260285850A1, “SUBSTITUTED OXAZOLIDINONES AND IMIDAZOLINONES AS HERBICIDES” (FMC CORPORATION, priority 2023, published 2026).

Columns and labels:
Format in all cases: in vivo
kochia (Bassia scoparia) [1] = test: Test A postemergence application, visual injury rating 0-100
Procedure, shortened: (§1)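 Compound in a non-phytotoxic, surfactant-containing solvent is applied either as a directed soil spray before seedlings emerge or onto emerged plants 2-10 cm tall; pots hold a loam-sand blend. Plants grow 10 days under greenhouse conditions and are rated by eye against untreated controls (0 no effect, 100 complete control).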

[2] = tested on: ragweed (common ragweed, Ambrosia artemisiifolia); test: as above
Procedure, shortened: as §1

[3] = tested on: ryegrass, Italian (italian ryegrass, Lolium multiflorum); test: as above
Procedure, shortened: as §1

[4] = tested on: horseweed (Erigeron canadensis); test: as above
Procedure, shortened: as §1

[5] = tested on: wheat (Triticum aestivum); test: as above
Procedure, shortened: as §1

[6] = tested on: oat, wild (wild oat, Avena fatua); test: as above
Procedure, shortened: as §1

soybean (Glycine max) [7] = test: as above
Procedure, shortened: as §1

[8] = tested on: blackgrass (Alopecurus myosuroides); test: as above
Procedure, shortened: as §1

corn (Zea mays) [9] = test: as above
Procedure, shortened: as §1

[10] = tested on: galium (catchweed bedstraw, Galium aparine); test: as above
Procedure, shortened: as §1

[11] = tested on: barnyardgrass (Echinochloa crus-galli); test: as above
Procedure, shortened: as §1

[12] = tested on: green foxtail (Setaria viridis); test: as above
Procedure, shortened: as §1

[13] = tested on: palmer (palmer amaranth, palmer pigweed, Amaranthus palmeri); test: as above
Procedure, shortened: as §1

[14] = tested on: barnyardgrass (Echinochloa crusgalli); test: Test B flooded paddy test, visual plant response rating 0-100; settings: 250 g ai/ha, Flood, applied to paddy water, evaluated after 13 days
Procedure, shortened: (§2)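 Treatment occurs at the 2-leaf stage by adding compound to floodwater standing 3 cm above the soil, a level kept for the whole test. Plants stay in the greenhouse 13 days before visual comparison with controls.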

[15] = tested on: ducksalad (Heteranthera limosa); test: as above; settings: 250 g ai/ha, Flood, applied to paddy water, evaluated after 13 days
Procedure, shortened: as §2

rice (Oryza sativa) = test: as above; settings: 250 g ai/ha, Flood, applied to paddy water, evaluated after 13 days
Procedure, shortened: as §2

[16] = tested on: sedge, umbrella (small-flower umbrella sedge, Cyperus difformis); test: as above; settings: 250 g ai/ha, Flood, applied to paddy water, evaluated after 13 days
Procedure, shortened: as §2

kochia (Bassia scoparia) [17] = test: Test A preemergence soil spray, visual injury rating 0-100; settings: 10 days
Procedure, shortened: as §1

[18] = tested on: ragweed (common ragweed, Ambrosia artemisiifolia); test: as above; settings: 10 days
Procedure, shortened: as §1

[19] = tested on: ryegrass, Italian (italian ryegrass, Lolium multiflorum); test: as above; settings: 10 days
Procedure, shortened: as §1

[20] = tested on: wheat (Triticum aestivum); test: as above; settings: 10 days
Procedure, shortened: as §1

[21] = tested on: oat, wild (wild oat, Avena fatua); test: as above; settings: 10 days
Procedure, shortened: as §1

soybean (Glycine max) [22] = test: as above; settings: 10 days
Procedure, shortened: as §1

[23] = tested on: blackgrass (Alopecurus myosuroides); test: as above; settings: 10 days
Procedure, shortened: as §1

corn (Zea mays) [24] = test: as above; settings: 10 days
Procedure, shortened: as §1

[25] = tested on: barnyardgrass (Echinochloa crus-galli); test: as above; settings: 10 days
Procedure, shortened: as §1

[26] = tested on: green foxtail (Setaria viridis); test: as above; settings: 10 days
Procedure, shortened: as §1

[27] = tested on: palmer (palmer amaranth, palmer pigweed, Amaranthus palmeri); test: as above; settings: 10 days
Procedure, shortened: as §1

[28] = 62 g ai/ha, postemergence, 10 days, 0 = no effect, 100 = complete control
[29] = Postemergence, 16 g ai/ha, greenhouse 10 days, 0 no effect, 100 complete control
[30] = 62 g ai/ha, 0 = no effect, 100 = complete control

CC(C)COC(=O)C1=CCC(NC(=O)C2(C)CN(c3cc(F)cc(F)c3)C(=O)O2)C1 (stereo not shown) [Compound 97]
Kochia plant response rating (0-100) (kochia (Bassia scoparia) [1]; [28]): 70 | Kochia plant response rating (0 to 100 scale) (kochia (Bassia scoparia) [1]; [29]): 30 | Ragweed plant response rating (0-100) [2, 28]: 20 | Ragweed plant response rating (0 to 100 scale) [2, 29]: 0 | Ryegrass, Italian plant response rating (0-100) [3, 28]: 0 | Ryegrass, Italian plant response rating (0 to 100 scale) [3, 29]: 0 | Horseweed plant response rating (0-100) [4, 28]: 0 | Horseweed plant response rating (0 to 100 scale) [4, 29]: 0 | Wheat plant response rating (0-100) [5, 28]: 10 | Wheat plant response rating (0 to 100 scale) [5, 29]: 0 | Oat, Wild plant response rating (0-100) [6, 28]: 0 | Oat, Wild plant response rating (0 to 100 scale) [6, 29]: 0 | Soybean plant response rating (0-100) (soybean (Glycine max) [7]; [28]): 40 | Soybean plant response rating (0 to 100 scale) (soybean (Glycine max) [7]; [29]): 0 | Blackgrass plant response rating (0-100) [8, 28]: 0 | Blackgrass plant response rating (0 to 100 scale) [8, 29]: 0 | Corn plant response rating (0-100) (corn (Zea mays) [9]; [28]): 0 | Corn plant response rating (0 to 100 scale) (corn (Zea mays) [9]; [29]): 0 | Galium plant response rating (0-100) [10, 28]: 60 | Galium plant response rating (0 to 100 scale) [10, 29]: 20 | Barnyardgrass plant response rating (0-100) [11, 28]: 20 | Barnyardgrass plant response rating (0 to 100 scale) [11, 29]: 0 | Foxtail, Green plant response rating (0-100) [12, 28]: 0 | Foxtail, Green plant response rating (0 to 100 scale) [12, 29]: 0 | Pigweed, Palmer plant response rating (0-100) [13, 28]: 10 | Pigweed, Palmer plant response rating (0 to 100 scale) [13, 29]: 0 | Plant response rating, Barnyardgrass (0 to 100 scale, 0 is no effect and 100 is complete control) [14]: 0 | Plant response rating, Ducksalad (0 to 100 scale, 0 is no effect and 100 is complete control) [15]: 0 | Plant response rating, Rice (0 to 100 scale, 0 is no effect and 100 is complete control) (rice (Oryza sativa)): 0 | Plant response rating, Sedge, Umbrella (0 to 100 scale, 0 is no effect and 100 is complete control) [16]: 0 | Kochia plant response rating (kochia (Bassia scoparia) [17]; 16 g ai/ha, 0 to 100 scale): 0 | Kochia plant response rating (0-100) (kochia (Bassia scoparia) [17]; [30]): 0 | Ragweed plant response rating ([18]; 16 g ai/ha, 0 to 100 scale): 0 | Ragweed plant response rating (0-100) [18, 30]: 0 | Ryegrass, Italian plant response rating ([19]; 16 g ai/ha, 0 to 100 scale): 0 | Ryegrass, Italian plant response rating (0-100) [19, 30]: 0 | Wheat plant response rating ([20]; 16 g ai/ha, 0 to 100 scale): 0 | Wheat plant response rating (0-100) [20, 30]: 10 | Oat, Wild plant response rating ([21]; 16 g ai/ha, 0 to 100 scale): 0 | Oat, Wild plant response rating (0-100) [21, 30]: 0 | Soybean plant response rating (soybean (Glycine max) [22]; 16 g ai/ha, 0 to 100 scale): 0 | Soybean plant response rating (0-100) (soybean (Glycine max) [22]; [30]): 0 | Blackgrass plant response rating ([23]; 16 g ai/ha, 0 to 100 scale): 0 | Blackgrass plant response rating (0-100) [23, 30]: 0 | Corn plant response rating (corn (Zea mays) [24]; 16 g ai/ha, 0 to 100 scale): 0 | Corn plant response rating (0-100) (corn (Zea mays) [24]; [30]): 0 | Barnyardgrass plant response rating ([25]; 16 g ai/ha, 0 to 100 scale): 0 | Barnyardgrass plant response rating (0-100) [25, 30]: 0 | Foxtail, Green plant response rating ([26]; 16 g ai/ha, 0 to 100 scale): 20 | Foxtail, Green plant response rating (0-100) [26, 30]: 60 | Pigweed, Palmer plant response rating ([27]; 16 g ai/ha, 0 to 100 scale): 0 | Pigweed, Palmer plant response rating (0-100) [27, 30]: 0
